Assays:
N1^+/− ECs = assay: Validation trials of screen candidates by targeted RNA-seq with the trained KNN algorithm; format: cell-based, human; conditions: duplicate or triplicate; one or more replicates classified as WT
Protocol: Starting on day 15 of differentiation, WT ECs were exposed to 10 μM DMSO (dimethyl sulfoxide) (n=80) while isogenic N1^+/− ECs were exposed to either 10 μM DMSO (n=80) or one of the small molecules from the LOPAC (1280 molecules) (Sigma LO1280) or Sheng Ding (315 molecules) chemical libraries. DMSO or small molecules were renewed with EC media (ScienCell #1001) changes on alternating days until the cells were ultimately collected for analysis on day 21. ECs were imaged using the IN Cell Analyzer on day 21 to evaluate morphology and cell death; wells with extensive cell death were eliminated from final analyses. For validation experiments, promising small molecules identified from the initial screen were applied to N1^+/− ECs in duplicate or triplicate along with controls of DMSO-exposed WT and N1^+/− ECs (n=4 each) using the same process as the initial screen described above.
ECs were lysed and RNA was isolated using the Qiagen RNeasy 96-well purification kit. RNA was diluted so that it was between the 10 pg-1 ng range accepted by the Cellular Research Precise targeted RNA-seq (RNA sequencing) system. Targeted RNA-seq libraries were prepared as per the Cellular Research Precise protocol (Rev 03092015), which includes both molecule and sample barcoding. The selected 119 target genes (see Table 1) included 3 low-expressing housekeeping genes for normalization (CHMP2A, C1orf43, REEP5) and either predicted central regulatory nodes or peripheral genes positioned within varied regions of the N1 network to permit identification of small molecules that affected central nodes as well as those that may have a synergistic effect in combination due to regulating different aspects of the network. Briefly, RNA was added to the Precise Encoding Plate containing indexed dT primer, dNTPs, and Spike-in mRNA controls and incubated at 65° C. for 3 minutes followed by cooling on ice. A master-mix of RT enzyme, RNase inhibitor, and buffer was then added to the samples, and they were incubated at 42° C. for 30 minutes followed by 80° C. for 5 minutes. Each plate of samples was combined into a single 2 ml tube and purified with AMPureXP beads. N1 PCR master-mix was added and samples were incubated for 94° C. for 2 minutes, followed by 15 cycles of 94° C. for 30 seconds, 55° C. for 3 minutes, and 68° C. for 1 minute, followed by 68° C. for 7 minutes. Samples were purified with AMPureXP beads and N2 PCR master-mix was added. Samples were incubated with the same thermal cycler program as above for 12 cycles. These final libraries were then purified with AMPureXP beads and analyzed for quality and concentration by Agilent Bioanalyzer and Illumina Library Quantification Kit (KAPA Biosystems), respectively. Libraries were normalized to equivalent concentration and pooled for paired-end 100 bp sequencing on an Illumina HiSeq 2500 instrument.
Sequencing data was analyzed using Cellular Research Precise Analysis Pipeline on the SevenBridges platform, which included analyzing sequencing quality with FASTQC, trimming adapters and filtering reads, demultiplexing based on sample barcodes, aligning reads with Bowtie 2, and determining the number of unique molecular indices per gene. Network inference was based on mutual information of gene expression from all DMSO- and small molecule-exposed samples as described in Margolin et al., BMC Bioinformatics. 2006; 7 Suppl 1:S7. Network diagram was generated using NetworkX (Hagberg et al., Exploring Network Structure, Dynamics, and Function using NetworkX. SciPy. 2008) based on network connections inferred from the small molecule screen data as described above with colors based on whole transcriptome RNA-seq gene expression of isogenic N1^+/− compared to WT ECs.
Promising small molecules were identified using either K-nearest neighbor (KNN) or hierarchical clustering algorithms. […]

N1^+/−/mTR^G2 mice [1] = assay: In vivo small molecule treatment, staining of AV calcification with Alizarin Red; conditions: for reduction of the extent of calcification / reduction of the number of mice that developed calcification: compared to DMSO-treated mice, Alizarin red; for reduction of the extent of calcification: TG003 n=2, p=0.09, XCT790 single calcified mouse, not statistically significant; for reduction of the number of mice that developed calcification: TG003 p=0.09, XCT790 not statistically significant; for number of mice with calcified AVs by Alizarin red staining: four weeks of treatment from fourth postnatal week, DMSO 14 of 86; for AV calcification, overall conclusion: summary statement
Protocol: (§1) Protocols were reviewed/approved by UCSF Institutional Animal Care and Use Committee, San Francisco, CA. N1^+/− and mTR^het C57Bl6 mice (purchased from Jackson Labs: #002797 and #004132, respectively) were used to generate double mutant animals. Breedings were performed as previously described (Theodoris et al., The Journal of Clinical Investigation. 2017; 127:1683) to generate N1^+/−/[…] mice. Mice were treated with XCT790 (5 mg/kg/day), TG003 (0.3 mg/kg/day or 2 mg/kg/day, results pooled for analysis), Fmoc-leu (0.6 mg/kg/day), GSK837149A (4.5 mg/kg/day), biperiden (10 mg/kg/day), CB1954 (15 mg/kg/day), putrescine (0.26 mg/kg/day), naloxone (25 mg/kg/day), all by intraperitoneal injection, and RO4929097 (60 mg/kg/day) by oral gavage, or equivalent volume of solvent (DMSO or saline) for four weeks starting at the fourth postnatal week.
Hearts were fixed by perfusion fixation under anesthesia using isofluorane by ventricular KCl injection followed by PBS wash and fixation with 4% paraformaldehyde. Hearts were then incubated in 10% formalin overnight. The cardiac apex was cut parallel to the aortic root, and the heart tissue was then paraffin processed using standard protocols and embedded with the cut surface down. The resulting paraffin block was trimmed and angled to obtain a full three-leaflet view of the aortic root. The root was serially sectioned at […] intervals from the base of the aortic sinus and mounted on slides. The slides were then deparaffinized, and calcification was stained with 2% Alizarin Red (pH 4.1-4.3) as previously described (Theodoris et al., The Journal of Clinical Investigation. 2017; 127:1683).

N1^+/−/mTR^G2 mice [2] = assay: In vivo small molecule treatment, AV and PV peak velocity by echocardiography; conditions: XCT790 5 mg/kg/day i.p., TG003 0.3 or 2 mg/kg/day i.p. pooled; for AV stenosis by echocardiography: AV peak velocity versus DMSO; for PV stenosis by echocardiography: PV peak velocity versus DMSO
Protocol: as §1
Echocardiography was performed under isofluorane anesthesia with standard measurement techniques using the Vevo 770 Imaging System (VisualSonics) equipped with an RMV-707B transducer with central frequency of 30 MHz. Peak blood flow velocity through AVs and PVs was obtained by pulsed wave Doppler in the modified parasternal long and short axis views. The average of three cardiac cycles was used for each measurement.

Row | SMILES | KNN classification of treated N1^+/− ECs in validation trials (N1^+/− ECs) | reduction of the extent of calcification (N1^+/−/mTR^G2 mice [1]) [%] | reduction of the number of mice that developed calcification (N1^+/−/mTR^G2 mice [1]) [%] | number of mice with calcified AVs by Alizarin red staining (N1^+/−/mTR^G2 mice [1]) | AV calcification, overall conclusion (N1^+/−/mTR^G2 mice [1]) | AV stenosis by echocardiography (N1^+/−/mTR^G2 mice [2]) | PV stenosis by echocardiography (N1^+/−/mTR^G2 mice [2])
1 | CCN1/C(=C/C(C)=O)Sc2ccc(OC)cc21 [TG003, (Z)-1-(3-ethyl-5-methoxy-2,3-dihydrobenzothiazol-2-ylidene)propan-2-one] | classified as WT | 80 | 68 | 2 of 38 | showed a trend of reducing AV calcification | did not significantly impact | did not significantly impact
2 | COc1cc(/C=C(\C#N)C(=O)Nc2nnc(C(F)(F)F)s2)ccc1OCc1ccc(C(F)(F)F)cc1C(F)(F)F [XCT790, 2E-3-(4-{[2,4-bis(trifluoromethyl)benzyl]oxy}-3-methoxyphenyl)-2-cyano-N-[5-(trifluoromethyl)-1,3,4-thiadiazol-2-yl]acrylamide] | classified as WT | 99 | 64 | 1 of 17 | showed a trend of reducing AV calcification | showed a trend of reducing AV stenosis | sufficient to prevent PV stenosis

Reference: US12599608B2, “Methods for treating cardiac valve disease” (The Regents of the University of California, priority 2018, dated 2026)
